For data set [1], the system named is large blood vessels of the lower limbs. The following applies: patients with severe intermittent claudication; cited from earlier work.
The subject of the next data set is Buerger's disease. The data set can be described thus: Case report: subcutaneous Treprostinil in severe Buerger's disease (Example IX). Type of data set: in vivo, human. The protocol:
At this point, subcutaneous Treprostinil therapy was administered to the patient. Treprostinil was delivered chronically by continuous subcutaneous infusion using a pager-sized ambulatory infusion pump (Medtronic Minimed 407C, Minneapolis, Minn.)). […] The patient is now on a maintenance dose of Treprostinil 12 ng/kg/min from 9 PM-9 AM every seventh day, with no drug for the next 7 days.

The subject of data set [2] is human pulmonary arterial smooth muscle cells. The following applies: cited from earlier work.
In a further data set the test system is sheep. Nature of the data set: Aerosolized UT-15 at high doses on baseline hemodynamics (Example III). The format is in vivo. The text has this: The efficacy of benzindene prostaglandins, such as UT-15, for treating pulmonary hypertension can be assessed by determining the hemodynamics associated with pulmonary hypertension. In particular, measurements of pulmonary arterial pressure (PPA), left atrial pressure (PLA), central venous pressure (PCV), systemic arterial pressure (PSYS), heart rate (HR), and cardiac output (CO) are useful in determining the effects of benzindene prostaglandins delivered by inhalation or parenterally.
Although pulmonary arterial pressure can be directly measured and is often used to quantify pulmonary arterial hypertension, PPA can be affected by 3 other variables: CO, PLA and PVR, as indicated by Equation 1: PPA=(CO*PVR)+PLA (1)
On the other hand, PVR can not be directly measured and must be calculated by the following Equation 2: PVR=(PPA−PLA)/CO (2)
Heart rate was determined by measuring the time (seconds) required for 25 heart beats to occur (t25) as indicated by the pulsations on the blood flow meter; the beats per minute (BPM) were calculated by the following equation: BPM=(25 beats/t25)*60 seconds
All pressure may be monitored by commercially available transducers, such as Model 1290A HEWLETT PACKARD™ transducer (Andover, Mass.), which is attached to VALIDYNE CD19A Carrier Dmod. Amplifiers (Northridge, Calif.). Cardiac output may be measured by a Transonic Systems T101 Ultrasonic Bloodflow Meter (Ithaca, N.Y.). The pressure and blood flow signals may be recorded on ASTROMED MT-9500 Stripchart Recorder (West Warwick, R.I.) and digitally recorded with a personal computer using Easy Data Acquisition Software (Nashville, Tenn.).
Six yearling sheep (3 males, 3 females; 21-37 kg) were fasted 18-24 hours and initially anesthetized with a short acting barbiturate (thiopental) to allow intubation of the sheep. Halothane gas anesthesia (1.5-2.5%) was then used for the surgical procedures. Via a left thoracotomy, a Transonic blood flow probe was placed around the main pulmonary artery, silastic catheters placed in the main pulmonary artery and left atrium. After approximately 7 days the sheep were reanesthetized and the left carotid artery cannulated, a Cordis Introducer Sheath inserted in the left jugular vein, and a tracheotomy made. The sheep were allowed to recover for another 3-5 days prior to experimentation. These sheep were used to allow measurement of pulmonary arterial pressure (PPA), left atrial pressure (PLA), central venous pressure (PCV), systemic arterial pressure (PSYS), heart rate (HR), and cardiac output (CO) after baseline measurements were made for a minimum of 30 minutes.
Baseline measurements consisted of 30 minutes of monitoring during vehicle/saline aerosolization (0.28 ml/min). […]

Data set [3] deals with human alveolar macrophages. The following applies: cited from earlier work.
Data set [4] concerns patients with class III or class IV heart failure. The following applies: cited from earlier work.
Where [5] appears, read: 3800-5700 ng per kg per min, 90 minutes.

As for `CCCCC[C@H](O)CC[C@@H]1[C@H]2Cc3cccc(OCC(=O)O)c3C[C@H]2C[C@H]1O` [UT-15, 9-deoxy-2′,9-alpha-methano-3-oxa-4,5,6-trinor-3,7-(1′,3′-interphenylene)-13,14-dihydro-prostaglandin F1], in data set [1], the “blood flow in large blood vessels of the lower limbs” value was “increase in blood flow”. For the same compound, in the data set on Buerger's disease (in vivo), the “dose limiting side effects” value is “diarrhea and jaw pain”. In the data set on Buerger's disease (one patient), the Doppler studies result was “improvement in pulse volume recording wave form” and the “return of ischemic symptoms after attempts to discontinue” value was no more than 1 week. The compound also had a maximum tolerated dose in the data set with Buerger's disease (one patient, continuous subcutaneous infusion) of 12.5 ng/kg/min. Also, the “ulcer on right middle finger” value in the data set with Buerger's disease (one patient, maintenance 12 ng/kg/min) was “complete healing”. For the same compound, the “patient-reported comfort and activities of daily living” value in the data set with Buerger's disease (one patient, sc infusion 12.5 ng/kg/min) was “improved comfort and increased ability to participate in activities of daily living”. Moreover, the “proliferation of human pulmonary arterial smooth muscle cells” value in data set [2] was “inhibits proliferation”. In the data set with sheep (setting [5]), the “PPA decrease relative to baseline” value was “approximately 18%”, the “PSYS decrease relative to baseline” value was 7.5% and the “PVR decrease relative to baseline” value is “approximately 19%”. The “non-lung effects (heart rate, cardiac output)” value with sheep (high doses) is “without significant non-lung effects”. For the same compound, the “inflammatory cytokine (tumor necrosis factor-α, interleukin-1β, interleukin-6, GM-CSF) secretion and gene expression” value in data set [3] is given as “inhibits”. In addition, in data set [4], the vasodilator effects entry is on record as “vasodilator effects”.

Values taken from US10076505B2, “Inhalation formulations of Treprostinil” (priority 2003, dated 2018).
